“And” between values parts separate entries of the source, which are not always exact repeats. Equal entries are not always repeated.
How the values were obtained:
[1] = system: white blood cell; test: White blood cell count after injection of radionuclide complex (Unopette Test 5856); assay type: in vivo, Sprague Dawley rats
Experimental: Six Sprague Dawley rats were allowed to acclimate for a period of 6 days then a sample of blood was taken daily from the tail vein and the white blood cell count determined by a standard manual method (Unopette Test 5856 from Becton-Dickinson and Company). On the fourth day, rats numbered 2, 4 and 6 were injected with 0.9 mCi (33.3 MBq) of the above complex. The rat weight at this time ranged from 160-180 g. On days 7, 8, and 9 the white blood cell count was again determined for each rat. Table VI gives the white blood cell count of the injected (2, 4 and 6) rats compared to the control rats (1, 3, and 5). […]

[2] = Biodistribution: % of injected dose in tissue 2 hours after tail vein injection (NaI scintillation counting); assay type: in vivo, Sprague Dawley rats; conditions: rat i.v.
Experimental: (§1) The rats weighed between 150 and 200 g at the time of injection. After 2 hours the rats were killed by cervical dislocation and dissected. The amount of radioactivity in each tissue was determined by counting in a NaI scintillation counter coupled to a multichannel analyzer. The counts were compared to the counts in 100 μL standards in order to determine the percentage of the dose in each tissue or organ.
as §1, with “to determined” for “to determine”, “organ. The numbers represent the average of 5 rats per data point.” for “organ.”
as §1, with “Sprague Dawley rats were allowed to acclimate for five days then injected with 100 μL of the Sm solution described above via a tail vein. The rats” for “The rats”, “or organ. The numbers represent the average of 3 rats per data point.” for “or organ.”
as §1, with “Sprague Dawley rats were allowed to acclimate for five days then injected with 100 μL of the Ho solution described above via a tail vein. The rats” for “The rats”, “each tissue wa determined by” for “each tissue was determined by”, “or organ. The numbers represent the average of 3 rats per data point.” for “or organ.”
Sprague Dawley rats were allowed to acclimate for five days then injected with 100 μL of the solutions described above via a tail vein. The rats weighed between 150 and 200 g at the time of injection. After 2 hours the rats were killed by cervical dislocation. Tissues were taken, weighed and the amount of radioactivity determined by counting in a NaI scintillation counter coupled to a multichannel analyzer. The counts in each tissue were compared to the counts in 100 μL standards in order to determine the percentage of the dose in each tissue or organ.
A Sprague Dawley rat was allowed to acclimate for five days then injected with 175 μL of the solution described above via a tail vein. The rat weighed 155 g at the time of injection. After 2 hours the rat was killed by cervical dislocation and dissected. The amount of radioactivity in each tissue was determined by counting in a NaI scintillation counter coupled to a multichannel analyzer. The counts in each tissue were compared to the counts in […] standards in order to determine the percentage of the dose in each tissue or organ.

[3] = 0.9 mCi (33.3 MBq) injected Day 4, individual rats 2, 4, 6 (Day 4 counts 28950, 21300, 17600)

O=P([O-])(O)CN1CCN(CP(=O)(O)O)CCN(CP(=O)([O-])O)CCN(CP(=O)(O)O)CC1.[166Ho] [Ho-DOTMP]
Blood count of treated animals compared to untreated animals ([1]; 0.9 mCi (33.3 MBq) i.v., rats, days 7, 8 and 9, injected on day 4): significant drop in the blood count
White blood cell count, Day 7 [1, 3]: 5850 and 7400 and 5400
White blood cell count, Day 8 [1, 3]: 7950 and 7500 and 4750
White blood cell count, Day 9 [1, 3]: 7900 and 7550 and 5350
% Injection dose in blood ([2]; Table IV, Blood, 0.6 mM Ho, ligand to Ho ratio approximately 1.5, average of 3 rats): 0.07%
% Injection dose in kidney ([2]; Table IV, Kidney, 0.6 mM Ho, ligand to Ho ratio approximately 1.5, average of 3 rats): 0.4%
% Injection dose in liver ([2]; Table IV, Liver, 0.6 mM Ho, ligand to Ho ratio approximately 1.5, average of 3 rats): 0.07%
% Injected dose in blood ([2]; Table V, Blood, ligand of Example 2, cation exchange purified, average of 3 rats): 0.17%
% Injected dose in bone ([2]; Table V, Bone, ligand of Example 2, cation exchange purified, average of 3 rats): 64%
% Injected dose in liver ([2]; Table V, Liver, ligand of Example 2, cation exchange purified, average of 3 rats): 0.19%

Reference: patent US4976950A, “Bone marrow suppressing agents” (The Dow Chemical Company, priority 1989, dated 1990)
